Results as given in PubChem BioAssay (NCI).
Where “and” joins values, the source holds several entries; their conditions need not be identical. Equal entries are not always repeated.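 Cultured in 96-well plates, cells were exposed to test compound for 48 hours across five concentrations. Abbreviation: GI50, concentration required for 50% inhibition of growth. At the TGI there is no net growth.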

What was measured:
Assay in all cases: growth of human tumour cells (NCI), 48 h
A549 NSCLC = system: A549 NSCLC
HCC-2998 colon = system: HCC-2998 colon
HCT-15 colon = system: HCT-15 colon
HOP-62 NSCLC = system: HOP-62 NSCLC
HT29 colon = system: HT29 colon
LOX IMVI melanoma = system: LOX IMVI melanoma
MALME-3M melanoma = system: MALME-3M melanoma
OVCAR-4 ovarian = system: OVCAR-4 ovarian
OVCAR-5 ovarian = system: OVCAR-5 ovarian
SR leukemia = system: SR leukemia

Structure (SMILES) | GI50 (A549 NSCLC) | TGI (A549 NSCLC) | GI50 (HCC-2998 colon) | TGI (HCC-2998 colon) | GI50 (HCT-15 colon) | TGI (HCT-15 colon) | GI50 (HOP-62 NSCLC) | TGI (HOP-62 NSCLC) | GI50 (HT29 colon) | TGI (HT29 colon) | GI50 (LOX IMVI melanoma) | TGI (LOX IMVI melanoma) | GI50 (MALME-3M melanoma) | TGI (MALME-3M melanoma) | GI50 (OVCAR-4 ovarian) | TGI (OVCAR-4 ovarian) | GI50 (OVCAR-5 ovarian) | TGI (OVCAR-5 ovarian) | GI50 (SR leukemia) | TGI (SR leukemia)
Cn1cc(-c2ccc3ncc(-c4ccc(CC(=O)Nc5cc(C(C)(C)C)nn5C)cc4)cc3c2)cn1 | 1.44 µM | > 20 µM | 2.73 µM | > 20 µM | 0.793 µM | > 20 µM | 3.96 µM | > 20 µM | 3.99 µM | > 20 µM | 1.23 µM | > 20 µM | 0.721 µM | > 20 µM | 0.687 µM | 5.03 µM | 7.83 µM | > 20 µM | 0.967 µM | > 20 µM
O=C1Nc2ccc(-c3cccnc3)cc2/C1=C/c1cc(Br)c(O)c(Br)c1 | 8.05 µM | > 25 µM | 8.58 µM | > 25 µM | 6.8 µM | > 25 µM | 8.43 µM | > 25 µM | 7.06 µM | > 25 µM | 4.99 µM | > 25 µM | 3.96 µM | 23.9 µM | 14.8 µM | > 25 µM | 15.6 µM | > 25 µM | 8.24 µM | > 25 µM
O=C(O)c1ccccc1C(=O)c1ccco1 |  | > 100 µM |  | > 100 µM |  | > 100 µM |  | > 100 µM |  | > 100 µM |  | > 100 µM |  | > 100 µM |  | > 100 µM |  | > 100 µM |  | > 100 µM
OCCNc1nc2ccccc2c2[nH]c3ccccc3c12 | 0.394 µM | 2.19 µM | 0.527 µM | 1.71 µM | 0.349 µM | 3.59 µM | 0.583 µM | 6.66 µM | 0.321 µM | 2.71 µM | 0.419 µM | 1.8 µM | 0.487 µM | 1.91 µM | 1.06 µM | 4.59 µM | 1.13 µM | 7.55 µM | 0.206 µM | 5.95 µM
C[C@]12CCc3nc(Nc4ccc(O)cc4)sc3C1=CC[C@@H]1[C@@H]2CC[C@]2(C)/C(=N/NC(N)=S)CC[C@@H]12 | 0.498 µM | 1.86 µM | 1.89 µM | 4.3 µM | 1.24 µM | 3.03 µM | 1.7 µM | 4.21 µM |  |  | 1.52 µM | 2.86 µM | 1.12 µM | 2.38 µM | 1.6 µM | 3.43 µM | 1.98 µM | 4.8 µM | 0.454 µM | > 100 µM
CCOC(=O)C1=C(C)N(NC(N)=O)C2(N)N(NC(N)=O)C(C)=C(C(=O)OCC)C12C#N (stereo unspecified) |  | > 100 µM |  | > 100 µM |  | > 100 µM |  | > 100 µM |  | > 100 µM |  | > 100 µM |  | > 100 µM |  | > 100 µM |  | > 100 µM |  | > 100 µM
CCN1C(=O)N(CC)C2C1NC(=S)N2/N=C/C=C/c1ccccc1 (stereo unspecified) | 0.176 µM | > 100 µM | 0.328 µM | > 58.6 µM | 0.0849 µM | > 100 µM |  | > 100 µM | 0.111 µM | > 31.8 µM | 0.154 µM | > 100 µM | 3.55 µM | > 100 µM | 3.31 µM | > 100 µM | 0.465 µM | > 100 µM | 0.0444 µM | > 100 µM
CC(C)(C)O/N=C/c1cc(NC(=S)c2ccccc2)ccc1Cl |  | 35.1 µM |  | 24.2 µM |  | 32.1 µM |  | 37.1 µM |  | 29.2 µM |  | 30.4 µM |  | 40.6 µM |  | 74.7 µM |  | 69.7 µM |  | 47.2 µM
O=[N+]([O-])c1cccnc1S(=O)(=O)c1ccccc1 |  | 40.4 µM |  | 39.6 µM |  | 21.7 µM |  | 32.8 µM |  | 14.3 µM |  | 15.7 µM |  | 23.8 µM |  | 17.1 µM |  | 29.4 µM |  | > 100 µM
N#CN1CC[C@H](C(=O)Nc2ncc(-c3ccccc3)s2)C1 | 1.9 µM | 8.61 µM | 1.09 µM | 2.58 µM | 0.312 µM | 3.65 µM | 1.37 µM | 4.21 µM | 0.313 µM | 1.82 µM | 0.267 µM | 1.65 µM | 0.232 µM | 1.42 µM | 0.673 µM | 5.59 µM | 1.39 µM | > 100 µM | 0.222 µM | 1.29 µM
CC[n+]1c(-c2ccccc2)c2cc(N)ccc2c2ccc(N)cc21 | 2.17 µM | 48.3 µM and 76.7 µM and > 95.1 µM | 1.22 µM | 3.31 µM and 16.5 µM and 19.8 µM | 39.6 µM | > 100 µM | 0.863 µM and 7.4 µM and 2.38 µM |  | 1.64 µM | 9.45 µM and 29 µM | 2.31 µM and 3.12 µM and 7.53 µM | 13.7 µM and 21.2 µM and 34.7 µM | 0.631 µM | 2.9 µM and 6.43 µM | 0.705 µM | 3.99 µM and 29.5 µM and 36 µM | 5.67 µM | 57.6 µM and > 100 µM | 0.801 µM and 1.69 µM and 4.08 µM | > 100 µM and 13 µM
OCc1ccc(-c2ccc(-c3ccc(CO)o3)o2)o1 | > 100 µM | > 100 µM | > 82 µM | > 100 µM | > 100 µM | > 100 µM | 27.1 µM | > 78 µM | > 85.9 µM | > 100 µM | > 100 µM | > 100 µM | 8.22 µM | 69.6 µM | > 41.3 µM | > 100 µM | 0.641 µM | 3 µM | > 100 µM | > 100 µM
N=C(N)n1cc(/C=N/N=C(N)N)cn1 |  | > 100 µM |  | > 100 µM |  | > 100 µM |  | > 100 µM |  | > 100 µM |  | > 100 µM |  | > 100 µM |  | > 100 µM |  | > 100 µM |  | > 100 µM
O=C(Nc1nc2ccc(S(=O)(=O)Nc3ccc(C4(C(F)(F)F)CC4)cc3)cc2[nH]1)c1cnccn1 | 2.88 µM | 21.5 µM | 3.61 µM | 17.7 µM | 0.557 µM | 14.3 µM | 3.85 µM | 23 µM | 1.2 µM | 14.4 µM | 1.62 µM | 20.1 µM | 1.66 µM | 15.5 µM | 4.61 µM | 19.7 µM | 5.52 µM | 19.5 µM | 0.359 µM | 2.96 µM
